# pIC50: −log10 of the molar value. Where a name gives a salt, the structure may show the parent alone.
# Columns and labels:
# [1] = test system: rabbit model with venous thrombus; assay: Rabbit in vivo antithrombotic action evaluation test (venous thrombus model), thrombus weight; details: i.v.
# From the text: A rabbit model with venous thrombus was produced by modifying the report of Wienen et al. (Wienen W. et al., J. Thromb. Haemost. 5:1237-1242 (2007)). A male rabbit (JW, 2-4 kg) was narcotized by inhalation of isoflurane (ISOFLU®, manufactured by DS Pharma Animal Health) (inductive anesthesia: 4%, continuous anesthesia: 1.5% to 2.5%). For intravenous administration of a test agent and blood collection, catheters were inserted into the left femoral vein and the left femoral artery. The left external jugular vein was exposed (2 cm) from a branch of the facial vein, the microvascular branch was then ligated, and a catheter was then inserted into the posterior facial vein. The external jugular vein (2 cm) exposed from each of an anterior facial vein branch and a facial vein branch was ligated with an artery clamp, and blood was then removed from a catheter left in the posterior facial vein. Blood in the blood vessel was washed with a normal saline, and 0.5% polidocanol (manufactured by Sigma) was injected into the blood vessel. It was then left for 5 minutes, so that the occurrence of a disorder in vascular endothelium was provoked. Thereafter, 0.5% polidocanol was removed, the inside of the blood vessel was then washed with a normal saline, and the artery clamp was then removed. The external jugular vein (2 cm) exposed from the facial vein branch, together with an injection needle 21G (manufactured by Terumo), was ligated with a silk thread, so that the inner diameter of the blood vessel was reduced to 0.8 mm. Twenty-five minutes after recirculation of the blood flow, the external jugular vein (2 cm) exposed from the facial vein branch was excised, and the wet weight and dry weight of a thrombus formed in the blood vessel were measured. A test agent or a vehicle was administered to the rabbit 2 minutes before recirculation of the blood flow.
# [2] = test system: endogenous coagulation pathway; assay: Activated partial thromboplastin time (aPTT) of blood sample in rabbit antithrombotic test; assay type: in vivo; details: i.v.
# Protocol: In order to measure the activated partial thromboplastin time (aPTT) of the blood sample, which was to be used as an indicator of an endogenous coagulation pathway, 2 minutes after the administration of the test agent or the vehicle, blood was collected, and plasma was then prepared using 3.2% sodium citrate. The prepared plasma was incubated at 37° C. for 7 minutes, and an STA reagent Cephascreen (used for aPTT measurement; manufactured by Roche Diagnostics) was added in an equal amount to the resulting plasma, and the obtained mixture was further incubated for 3 minutes. Thereafter, STA calcium chloride (manufactured by Roche Diagnostics) was added in an equal amount to the resultant, and the time required until coagulation was then measured.
# human FXIa = human FXIa (Homo sapiens (Human), UniProt P03951); assay: In vitro activated factor XI (FXIa) inhibition test; assay type: biochemical; details: 0.35 μg/mL human FXIa, substrate S-2366 300 μmol/L, 37° C., 10 minutes, OD 405 nm; read-out: FXIa inhibitory activity IC50
# Protocol: To the substrate, S-2366 (pyroGlu-Pro-Arg-pNA.HCl) was added to a final concentration of 300 μmol/L. After the reaction had progressed, the absorbance at OD 405 nm was measured.
# [3] = Ester metabolism stabilization test: human liver stabilization test; assay type: in vitro ADME; details: human liver S9, NADPH, 37° C., 30 minutes
# Protocol: A reaction solution prepared by mixing 5 μL of human liver S9 (manufactured by Xenotech, 20 mg/mL), 20 μL of 500 mmol/L Kpi (pH7.4), 40 μL of 5 mmol/L NADPH (manufactured by Oriental Yeast Co., Ltd.) aqueous solution, and 133 μL of ion exchange water was added to 2 μL of a DMSO solution containing 100 μmol/L test substance, and the thus obtained mixture was then incubated at 37° C. for 30 minutes. After completion of the incubation, 600 μL of acetonitrile was added to the reaction solution, so that the metabolic reaction was terminated. The residual percentage of the test substance was measured using LC (LC-20A manufactured by Shimadzu Corporation) and -MS (API4000 manufactured by AB Sciex). • (2) Stabilization in Human Plasma Test
# [4] = Ester metabolism stabilization test: stabilization in human plasma test; assay type: in vitro ADME; details: 37° C., 30 minutes
# Protocol: 198 μL of human plasma (manufactured by Cosmo Bio) was added to 2 μL of a DMSO solution containing 100 μmol/L test substance, and the obtained mixture was then incubated at 37° C. for 30 minutes. After completion of the incubation, 600 μL of acetonitrile was added to the reaction solution, so that the metabolic reaction was terminated. The residual percentage of the test substance was measured using LC (LC-20A manufactured by Shimadzu Corporation) and -MS (API4000 manufactured by AB Sciex).
# human FXIa, sequence (P03951 388-625): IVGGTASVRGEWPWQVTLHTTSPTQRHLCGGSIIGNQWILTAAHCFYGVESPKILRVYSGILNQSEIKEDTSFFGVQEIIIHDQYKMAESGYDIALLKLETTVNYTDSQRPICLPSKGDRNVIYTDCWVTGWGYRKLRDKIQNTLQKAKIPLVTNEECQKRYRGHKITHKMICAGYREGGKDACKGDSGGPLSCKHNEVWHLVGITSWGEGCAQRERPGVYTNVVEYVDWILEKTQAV
# human FXIa, sequence (P03951 19-387 partner): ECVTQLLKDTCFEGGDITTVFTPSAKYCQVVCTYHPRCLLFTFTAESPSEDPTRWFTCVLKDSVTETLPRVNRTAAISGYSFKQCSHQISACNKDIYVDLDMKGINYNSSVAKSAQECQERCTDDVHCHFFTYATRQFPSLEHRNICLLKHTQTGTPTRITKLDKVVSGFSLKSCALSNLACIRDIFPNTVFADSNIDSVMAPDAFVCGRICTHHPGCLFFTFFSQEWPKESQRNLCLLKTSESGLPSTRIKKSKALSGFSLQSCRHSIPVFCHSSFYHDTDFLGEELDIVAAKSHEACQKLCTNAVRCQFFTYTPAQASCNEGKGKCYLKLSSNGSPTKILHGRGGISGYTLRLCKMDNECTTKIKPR
Residual percentage (%) Human liver S9 [3],SMILES,pIC50 (human FXIa),also measured
–,"N[C@H](CF)[C@H]1CC[C@H](C(=O)N2CCC(C3CCCCC3)[C@H]2C(=O)Nc2ccc3oc(C(=O)O)cc3c2)CC1 (single isomer, unassigned) [Example 53]",–,Thrombus (% inhibition) ([1]; dose 0.1 mg/kg): 25 % inhibition; Thrombus (% inhibition) ([1]; dose 0.3 mg/kg): 56 % inhibition; Thrombus (% inhibition) ([1]; dose 1.0 mg/kg): 79 % inhibition; Thrombus (% inhibition) ([1]; dose 3.0 mg/kg): 80 % inhibition; aPTT (% vehicle) ([2]; dose 0.1 mg/kg): 103 % vehicle; aPTT (% vehicle) ([2]; dose 0.3 mg/kg): 117 % vehicle; aPTT (% vehicle) ([2]; dose 1.0 mg/kg): 140 % vehicle; aPTT (% vehicle) ([2]; dose 3.0 mg/kg): 166 % vehicle
–,"CN(C(=O)C1C(c2ccccc2)CCN1C(=O)[C@H]1CC[C@H](CN)CC1)c1ccc2[nH]c(C(=O)O)cc2c1 (stereo partly drawn) [Example 5, 5-{cis-1-[trans-4-(Aminomethyl)cyclohexanecarbonyl]-N-methyl-3-phenylpyrrolidine-2-carboxamide}-1H-indole-2-carboxylic acid trifluoroacetate]",6.90,–
–,NC[C@H]1CC[C@H](C(=O)N2CCC(c3ccccc3)[C@H]2C(=O)Nc2ccc3[nH]c(C(=O)O)cc3c2)CC1 (stereo partly shown) [Example 23],8.05,–
–,NC(CF)[C@H]1CC[C@H](C(=O)N2CC[C@@H](c3ccc(F)cc3)[C@H]2C(=O)Nc2ccc3[nH]c(C(=O)O)cc3c2)CC1 (stereo partly shown) [Example 38],7.52,–
5.8%,COCCCOC(=O)c1cc2cc(NC(=O)[C@@H]3[C@H](C4CCCCC4)CCN3C(=O)[C@H]3CC[C@H]([C@H](N)CF)CC3)ccc2o1 [Example 82],–,–
–,N[C@H](CF)[C@H]1CC[C@H](C(=O)N2CC[C@@H](C3CCCCC3)[C@H]2C(=O)Nc2ccc3[nH]c(C(=O)O)cc3c2)CC1 [Example 99],8.22,–
–,Cc1c(C(=O)O)[nH]c2ccc(NC(=O)[C@@H]3[C@H](C4CCCCC4)CCN3C(=O)[C@H]3CC[C@H]([C@H](N)CF)CC3)cc12 [Example 113],6.84,–
4.9%,CC(OC(=O)OC1CCCCC1)OC(=O)c1cc2cc(NC(=O)[C@@H]3[C@@H](c4ccccc4)CCN3C(=O)[C@H]3CC[C@H]([C@H](N)CF)CC3)ccc2[nH]1 (stereo partly shown) [Example 120],–,–
5.6%,CCC(=O)OC(OC(=O)c1cc2cc(NC(=O)[C@@H]3[C@@H](c4ccccc4)CCN3C(=O)[C@H]3CC[C@H]([C@H](N)CF)CC3)ccc2[nH]1)C(C)C (stereo partly shown) [Example 125],–,–
47%,CC(C)OC(=O)OC(C)OC(=O)c1cc2cc(NC(=O)[C@@H]3[C@H](C4CCCCC4)CCN3C(=O)[C@H]3CC[C@H]([C@H](N)CF)CC3)ccc2[nH]1 (stereo partly shown) [Example 128],–,–
–,COc1ccc([C@H]2CCN(C(=O)[C@H]3CC[C@H]([C@H](N)CF)CC3)[C@@H]2C(=O)Nc2ccc3[nH]c(C(=O)O)cc3c2)cc1 [Example 170],7.12,–
–,N[C@H](CF)[C@H]1CC[C@H](C(=O)N2CC[C@H](c3ccc(F)cc3)[C@H]2C(=O)Nc2ccc3[nH]c(C(=O)O)cc3c2)CC1 [Example 178],7.48,–
–,N[C@H](CF)[C@H]1CC[C@H](C(=O)N2CC[C@@H](c3ccccc3)[C@H]2C(=O)Nc2ccc3[nH]c(C(=O)O)c(Cl)c3c2)CC1 [Example 186],7.22,–
3.5%,"CC(C)C(=O)O[C@@H](C)OC(=O)N[C@H](CF)[C@H]1CC[C@H](C(=O)N2CC[C@@H](C3CCCCC3)[C@H]2C(=O)Nc2ccc(-c3nnn[nH]3)cc2)CC1 [Example 205, (1R)-1-({[(1S)-1-(trans-4-{[(2S,3S)-3-Cyclohexyl-2-{[4-(1H-tetrazol-5-yl)phenyl]carbamoyl}pyrrolidin-1-yl]carbonyl}cyclohexyl)-2-fluoroethyl]carbamoyl}oxy)ethyl 2-methylpropanoate]",–,Residual percentage (%) Human plasma [4]: 60%

SMILES,Residual percentage (%) Human liver S9 [3],pIC50 (human FXIa),also measured
N[C@H](CF)[C@H]1CC[C@H](C(=O)N2CC[C@@H](C3CCCCC3)[C@H]2C(=O)Nc2ccc3oc(C(=O)OCC4CCOCC4)cc3c2)CC1 [Example 141],17%,–,–
Cc1oc(=O)oc1COC(=O)c1cc2cc(NC(=O)[C@@H]3[C@@H](c4ccccc4)CCN3C(=O)[C@H]3CC[C@H]([C@H](N)CF)CC3)ccc2[nH]1 [Example 171],18%,–,–
COC1CCC([C@@H]2CCN(C(=O)[C@H]3CC[C@H]([C@H](N)CF)CC3)[C@@H]2C(=O)Nc2ccc3oc(C(=O)OCC(C)C)cc3c2)CC1 (stereo partly shown) [Example 201],45%,–,–

# Reference: patent publication US9758480B2, “1-(cycloalkyl-carbonyl)proline derivative” (SUMITOMO DAINIPPON PHARMA CO., LTD., priority 2012, dated 2017)
